Key:
[1] = tested on: Human immunodeficiency virus 1; assay: In vitro antiviral activity against fully replicating HIV1 NL4-3 harboring Gag T332S/V362I/prR41G mutant; assay type: functional, organism-based
[2] = tested on: Human immunodeficiency virus 1; assay: In vitro antiviral activity against fully replicating HIV1 NL4-3 harboring Gag A364V mutant; assay type: functional, organism-based
[3] = tested on: Human immunodeficiency virus 1; assay: In vitro antiviral activity against fully replicating wild type HIV1 NL4-3 in presence of human serum; assay type: functional, organism-based
[4] = tested on: Human immunodeficiency virus 1; assay: In vitro antiviral activity against fully replicating wild type HIV1 NL4-3; assay type: functional, organism-based
[5] = tested on: Human immunodeficiency virus 1; assay: Binding affinity to HIV1 Gag A364V mutant assessed as dissociation half life by virus-like particle (VLP) assay
[6] = Human immunodeficiency virus 1, NL4-3

| Structure (SMILES) | EC50 [1, 6] [µM] | EC50 [2, 6] [µM] | EC50 [3, 6] [µM] | EC50 [4, 6] [µM] | EC50 [1] [µM] | EC50 [2] [µM] | EC50 [3] [µM] | EC50 [4] [µM] | T1/2 [5] [min] |
| --- | --- | --- | --- | --- | --- | --- | --- | --- | --- |
| C=C(C)[C@@H]1CC[C@]2(NCCN3CCS(=O)(=O)CC3)CC[C@]3(C)[C@H](CC[C@@H]4[C@@]5(C)CC=C(C6=CCC(COc7nnnn7C)(C(=O)O)CC6)C(C)(C)[C@@H]5CC[C@]43C)[C@@H]12 (mixture of isomers) | 0.0068 | 0.0242 | 0.036 | 0.0017 |  |  |  |  |  |
| C=C(C)[C@@H]1CC[C@]2(NCCN3CCS(=O)(=O)CC3)CC[C@]3(C)[C@H](CC[C@@H]4[C@@]5(C)CC=C(C6=CCC(COc7ccc(Cl)cc7)(C(=O)O)CC6)C(C)(C)[C@@H]5CC[C@]43C)[C@@H]12 (stereo in doubt; 9) |  |  |  |  | 0.0853 | 0.244 | 0.0099 | 0.0032 |  |
| C=C(C)[C@@H]1CC[C@]2(NCCN3CCS(=O)(=O)CC3)CC[C@]3(C)[C@H](CC[C@@H]4[C@@]5(C)CC=C(C6=CCC(COc7ccccc7)(C(=O)O)CC6)C(C)(C)[C@@H]5CC[C@]43C)[C@@H]12 (mixture of isomers) | 0.0278 | 0.0197 | 0.0584 | 0.005 |  |  |  |  |  |
| C=C(C)[C@@H]1CC[C@]2(NCCN3CCS(=O)(=O)CC3)CC[C@]3(C)[C@H](CC[C@@H]4[C@@]5(C)CC=C(C6=CCC(COc7cc(C#N)ccn7)(C(=O)O)CC6)C(C)(C)[C@@H]5CC[C@]43C)[C@@H]12 (mixture of isomers) | 0.0641 | 0.0718 | 0.0463 | 0.0009 |  |  |  |  |  |
| C=C(C)[C@@H]1CC[C@]2(NCCN3CCS(=O)(=O)CC3)CC[C@]3(C)[C@H](CC[C@@H]4[C@@]5(C)CC=C(C6=CCC(COc7ccc(F)cc7)(C(=O)O)CC6)C(C)(C)[C@@H]5CC[C@]43C)[C@@H]12 (mixture of isomers) | 0.0265 | 0.0217 | 0.0745 | 0.0047 |  |  |  |  |  |
| C=C(C)[C@@H]1CC[C@]2(NCCN3CCS(=O)(=O)CC3)CC[C@]3(C)[C@H](CC[C@@H]4[C@@]5(C)CC=C(C6=CCC(COCc7ccccc7)(C(=O)O)CC6)C(C)(C)[C@@H]5CC[C@]43C)[C@@H]12 (mixture of isomers) | 0.0221 | 0.0498 | 0.0982 | 0.0078 |  |  |  |  |  |
| C=C(C)[C@@H]1CC[C@]2(NCCN3CCS(=O)(=O)CC3)CC[C@]3(C)[C@H](CC[C@@H]4[C@@]5(C)CC=C(C6=CC[C@](COc7ccccn7)(C(=O)O)CC6)C(C)(C)[C@@H]5CC[C@]43C)[C@@H]12 | 0.0088 | 0.0058 | 0.0549 | 0.0016 |  |  |  |  |  |
| C=C(C)[C@@H]1CC[C@]2(NCCN3CCS(=O)(=O)CC3)CC[C@]3(C)[C@H](CC[C@@H]4[C@@]5(C)CC=C(C6=CCC(COc7ncccn7)(C(=O)O)CC6)C(C)(C)[C@@H]5CC[C@]43C)[C@@H]12 (mixture of isomers) | 0.0126 | 0.0045 | 0.0521 | 0.0018 |  |  |  |  |  |
| C=C(C)[C@@H]1CC[C@]2(NCCN3CCS(=O)(=O)CC3)CC[C@]3(C)[C@H](CC[C@@H]4[C@@]5(C)CC=C(c6ccc(C(=O)O)cc6)C(C)(C)[C@@H]5CC[C@]43C)[C@@H]12 |  |  |  |  |  |  |  |  | < 1 |
| C=C(C)[C@@H]1CC[C@]2(NCCN3CCS(=O)(=O)CC3)CC[C@]3(C)[C@H](CC[C@@H]4[C@@]5(C)CC=C(C6=CCC(COc7ccccc7F)(C(=O)O)CC6)C(C)(C)[C@@H]5CC[C@]43C)[C@@H]12 (mixture of isomers) | 0.0193 | 0.0273 | 0.0584 | 0.0061 |  |  |  |  |  |
| C=C(C)[C@@H]1CC[C@]2(NCCN3CCS(=O)(=O)CC3)CC[C@]3(C)[C@H](CC[C@@H]4[C@@]5(C)CC=C(C6=CC[C@@](COc7ncccc7C#N)(C(=O)O)CC6)C(C)(C)[C@@H]5CC[C@]43C)[C@@H]12 [ZEGRUVIRIMAT] | 0.0058 | 0.0526 | 0.0411 | 0.0025 |  |  |  |  |  |
| C=C(C)[C@@H]1CC[C@]2(NCCN3CCS(=O)(=O)CC3)CC[C@]3(C)[C@H](CC[C@@H]4[C@@]5(C)CC=C(C6=CCC(COc7ccc(Cl)cc7)(C(=O)O)CC6)C(C)(C)[C@@H]5CC[C@]43C)[C@@H]12 (stereo in doubt; 8) | 0.0496 |  |  |  |  | 0.0753 | 0.149 | 0.0294 |  |
| C=C(C)[C@@H]1CC[C@]2(NCCN3CCS(=O)(=O)CC3)CC[C@]3(C)[C@H](CC[C@@H]4[C@@]5(C)CC=C(C6=CCC(COc7nccs7)(C(=O)O)CC6)C(C)(C)[C@@H]5CC[C@]43C)[C@@H]12 (mixture of isomers) | 0.0389 | 0.0024 | 0.0245 | 0.0036 |  |  |  |  |  |
| C=C(C)[C@@H]1CC[C@]2(NCCN3CCS(=O)(=O)CC3)CC[C@]3(C)[C@H](CC[C@@H]4[C@@]5(C)CC=C(C6=CCC(COc7cccc(Cl)c7)(C(=O)O)CC6)C(C)(C)[C@@H]5CC[C@]43C)[C@@H]12 (mixture of isomers) | 0.0492 | 0.0168 | 0.022 | 0.0107 |  |  |  |  |  |
| C=C(C)[C@@H]1CC[C@]2(NCCN3CCS(=O)(=O)CC3)CC[C@]3(C)[C@H](CC[C@@H]4[C@@]5(C)CC=C(C6=CC[C@@](COc7cnccn7)(C(=O)O)CC6)C(C)(C)[C@@H]5CC[C@]43C)[C@@H]12 | 0.0147 | 0.0214 | 0.0481 | 0.0028 |  |  |  |  |  |
| C=C(C)[C@@H]1CC[C@]2(NCCN3CCS(=O)(=O)CC3)CC[C@]3(C)[C@H](CC[C@@H]4[C@@]5(C)CC=C(C6=CC[C@@](COc7ccccn7)(C(=O)O)CC6)C(C)(C)[C@@H]5CC[C@]43C)[C@@H]12 | 0.0192 | 0.0072 | 0.0449 | 0.0035 |  |  |  |  |  |
| C=C(C)[C@@H]1CC[C@]2(NCCN3CCS(=O)(=O)CC3)CC[C@]3(C)[C@H](CC[C@@H]4[C@@]5(C)CC=C(C6=CCC(COc7cccc(C#N)n7)(C(=O)O)CC6)C(C)(C)[C@@H]5CC[C@]43C)[C@@H]12 (mixture of isomers) | 0.0158 | 0.0264 | 0.0157 | 0.0139 |  |  |  |  |  |
| C=C(C)[C@@H]1CC[C@]2(NCCN3CCS(=O)(=O)CC3)CC[C@]3(C)[C@H](CC[C@@H]4[C@@]5(C)CC=C(C6=CCC(COc7ccncc7)(C(=O)O)CC6)C(C)(C)[C@@H]5CC[C@]43C)[C@@H]12 (mixture of isomers) | 0.0142 | 0.0346 | 0.0333 | 0.0021 |  |  |  |  |  |
| C=C(C)[C@@H]1CC[C@]2(NCCN3CCS(=O)(=O)CC3)CC[C@]3(C)[C@H](CC[C@@H]4[C@@]5(C)CC=C(C6=CCC(COc7ccccn7)(C(=O)O)CC6)C(C)(C)[C@@H]5CC[C@]43C)[C@@H]12 (mixture of isomers) | 0.0143 | 0.0113 | 0.061 | 0.0026 |  |  |  |  |  |
| C=C(C)[C@@H]1CC[C@]2(NCCN3CCS(=O)(=O)CC3)CC[C@]3(C)[C@H](CC[C@@H]4[C@@]5(C)CC=C(C6=CCC(COc7cccc(F)c7)(C(=O)O)CC6)C(C)(C)[C@@H]5CC[C@]43C)[C@@H]12 (mixture of isomers) | 0.0343 | 0.0557 | 0.0148 | 0.0083 |  |  |  |  |  |
| C=C(C)[C@@H]1CC[C@]2(NCCN3CCS(=O)(=O)CC3)CC[C@]3(C)[C@H](CC[C@@H]4[C@@]5(C)CC=C(C6=CCC(COc7cccnn7)(C(=O)O)CC6)C(C)(C)[C@@H]5CC[C@]43C)[C@@H]12 (mixture of isomers) | 0.0472 | 0.0035 | 0.0598 | 0.0026 |  |  |  |  |  |
| C=C(C)[C@@H]1CC[C@]2(NCCN3CCS(=O)(=O)CC3)CC[C@]3(C)[C@H](CC[C@@H]4[C@@]5(C)CC=C(C6=CCC(COc7cccnc7)(C(=O)O)CC6)C(C)(C)[C@@H]5CC[C@]43C)[C@@H]12 (mixture of isomers) | 0.0058 | 0.0269 | 0.0367 | 0.0019 |  |  |  |  |  |
| C=C(C)[C@@H]1CC[C@]2(NCCN3CCS(=O)(=O)CC3)CC[C@]3(C)[C@H](CC[C@@H]4[C@@]5(C)CC=C(C6=CCC(COc7ccccc7Cl)(C(=O)O)CC6)C(C)(C)[C@@H]5CC[C@]43C)[C@@H]12 (mixture of isomers) | 0.0231 | 0.0201 | 0.0597 | 0.0097 |  |  |  |  |  |
| C=C(C)[C@@H]1CC[C@]2(NCCN3CCS(=O)(=O)CC3)CC[C@]3(C)[C@H](CC[C@@H]4[C@@]5(C)CC=C(C6=CC[C@@](CF)(C(=O)O)CC6)C(C)(C)[C@@H]5CC[C@]43C)[C@@H]12 [FIPRAVIRIMAT] |  |  | 0.0139 |  |  |  |  |  | < 1 |
| C=C(C)[C@@H]1CC[C@]2(NCCN3CCS(=O)(=O)CC3)CC[C@]3(C)[C@H](CC[C@@H]4[C@@]5(C)CC=C(C6=CCC(COc7ccc(C#N)cn7)(C(=O)O)CC6)C(C)(C)[C@@H]5CC[C@]43C)[C@@H]12 (mixture of isomers) | 0.232 | 0.0288 | 0.0343 | 0.0019 |  |  |  |  |  |
| C=C(C)[C@@H]1CC[C@]2(NCCN3CCS(=O)(=O)CC3)CC[C@]3(C)[C@H](CC[C@@H]4[C@@]5(C)CC=C(C6=CCC(COc7ccncn7)(C(=O)O)CC6)C(C)(C)[C@@H]5CC[C@]43C)[C@@H]12 (mixture of isomers) | 0.0686 | 0.01 | 0.0234 | 0.0017 |  |  |  |  |  |

— ChEMBL document CHEMBL6071211, “Invention of VH-937, a Potent HIV-1 Maturation Inhibitor with the Potential for Infrequent Oral Dosing in Humans” (ACS Med Chem Lett, 2024)
